Where two headings read alike, the source gives them in different places.
Assays:
[1] = target: bee venom phospholipase A2 (Apis mellifera, UniProt P00630); assay: biochemical; settings: read-out: IC50 (micromolar), Phospholipase A2 Assay
[2] = Isomerization upon standing; type: physicochemical
Calcium Channel = Calcium Channel (mobilization) Inhibition Assay; type: cell-based
Description: Calcium Channel (mobilization) Inhibition Assay
Polymorphonuclear leukocytes (PMNa), gastric glands, GH3 cells, A431 cells, spleen cells, human keratinocytes corneal cells, etc. were loaded with the Ca^2+ sensitive fluorescent dye, Fura-2. The appropriate cell type was chosen and the potency and efficacy of the anti-inflammatoryfuranones on calcium mobilization, calcium channel inhibition was quantitated. The methods used for A431 cells listed below are representative of those used for other cells.
A431 cells were detached using a 5-10 min trypsin-EDTA treatment whereas GH3 cells were treated 2 to 5 min with a 1% pancreatin solution. Cells were immediately washed twice in a 20 mM HEPES buffer (pH 7.4) containing 120 mM NaCl, 6 mM KCl, 1 mM MgSO4, 1 mg/ml glucose and 1 mg/ml pyruvate and 1.4 mM calcium (medium A). Approximately 5×10^6 cells were suspended in medium A and incubated with 4 uM fura-2-AM for 15 min at 37° C.
After washing the fura-2 loaded cells, the uptake of dye was checked using fluorescence microscopy and found to be evenly distributed in the cytosol of all cells. Fluorescence was continuously recorded with a Perkin-Elmer LS-5 spectrofluorometer. The excitation wavelength was set at 340 nm and emission wavelength set at 500 nm. The cell suspension was continually stirred, maintained at 37° C. and equilibrated for approximately 5 min before addition of various agents. [Ca^2+ i was calculated using the following formula: [formula]
All fluorescence values were measured relative to a EGTA-quenched signal determined as follows: F was the relative fluorescence measurement of the sample. Fmax was determined by lysing the cells with digitonin (100 ug/ml) in DMSO. After Fmax was determined the pH was adjusted to 8, with NaOH and Ca^2+ chelated with 3 mM EGTA to totally quench the fura-2 signal and obtain Fmin.
When quin-2- was used, cells were incubated with 10 uM quin-2- at 37° C. for 1 hour, washed and then used.
In the above-described phospholipase A2 (PLA2) and calcium^+ channel mobilization assays certain examplary compounds made from the synthetic intermediate compounds of the present invention had the following activities.

[3] = prior art; cited from earlier work
[4] = system: phosphoinositide-specific phospholipase C; settings: reported, Bennett et al, Molecular Pharmacology 32:587-593 (1987); cited from earlier work
[5] = read-out: IC50 (umolar) (KCl regulated), Calcium Channel Inhibition Assay
[6] = read-out: IC50 (umolar) (TRH regulated), Calcium Channel Inhibition Assay

bee venom phospholipase A2, sequence (P00630 34-167 limits assumed): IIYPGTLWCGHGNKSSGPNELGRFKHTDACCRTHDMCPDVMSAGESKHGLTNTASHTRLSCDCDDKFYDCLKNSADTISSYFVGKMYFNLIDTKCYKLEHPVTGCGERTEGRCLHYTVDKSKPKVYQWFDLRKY

## COCCOCOCC1=CC(=O)OC1O (stereo not drawn) [Compound 20]
[1]
  IC50: > 1 µM

## CCCCCCCCCCCCP(=O)(O)OCC1=CC(=O)OC1O (stereo not drawn) [Compound 21, 4-(Dodecylohosphonyloxymethyl)-5-hydroxy-2(5H)-furanone]
[1]
  IC50: 0.03 µM

## CCCCCCCCCCCCNC(=O)OCC1=CC(=O)OC1O (stereo not drawn) [Compound 22, 4-(N-Dodecylcarbamoyloxymethyl)-5-hydroxy-2(5H)-furanone]
[1]
  IC50: 0.05 µM

## CCCCCCCCCCCCOCC1=CC(=O)OC1O (stereo not drawn) [Compound 23]
[1]
  IC50: 0.04 µM

## CCOP(=O)(OCC)OCC1=CC(=O)OC1O (stereo not drawn) [Compound 24, 4-1-(Diethylphosphoryloxy)methyl-5-hydroxy-2(5H)-furanone]
[1]
  IC50: 0.34 µM

## CCCCCCCCCCCC(=O)NCC1=CC(=O)OC1O (stereo not drawn) [Compound 25, 4-(N-Dodecanoylaminomethyl)-5-hydroxy-2(5H)-furanone]
[1]
  IC50: 0.26 µM

## CCCCCCCCCCCCNC(=O)NCC1=CC(=O)OC1O (stereo not drawn) [Compound 26, 4-(N-Dodecylureido)methyl-5-hydroxy-2(5H)-furanone]
[1]
  IC50: 0.13 µM

## CCCCCCCCCCCCS(=O)(=O)NCC1=CC(=O)OC1O (stereo not drawn) [Compound 27, 4-(N-Dodecylsulfonamido)-methyl-5-hydroxy-2(5H)-furanone]
[1]
  IC50: 0.04 µM

## CCCCCCCCCCCCC(OC(C)=O)C1=CC(=O)OC1O (stereo not drawn) [Compound 28, 4(1-Acetoxytridecyl)-5-hydroxy-2(5H)-furanone]
[1]
  IC50: 0.04 µM

## CCCCCCCCCCCCC(NC(C)=O)C1=CC(=O)OC1O (stereo not drawn) [Compound 29]
[1]
  IC50: 0.07 µM

## CCCCCCCCCCCCC(NC(=O)C(F)(F)F)C1=CC(=O)OC1O (stereo not drawn) [Compound 30]
[1]
  IC50: 0.06 µM

## CCCCCCCCCCCCC(NS(C)(=O)=O)C1=CC(=O)OC1O (stereo not drawn) [Compound 31]
[1]
  IC50: 0.05 µM

## CCCCCCCCCCCCC(NC(=O)NC)C1=CC(=O)OC1O (stereo not drawn) [Compound 32, 4-[-1-(N-methylureido)tridecyl]-5-hydroxy-2(5H)-furanone]
[1]
  IC50: 0.48 µM

## CCCCCCCCCCCC(=O)NCC(O)C1=CC(=O)OC1O (stereo not drawn) [Compound 40, 4-(2-Undecanylamido-1-hydroxy)ethyl-5-hydroxy-2(5H)-furanone]
[1]
  IC50: 0.28 µM

## CCCCCCCCCCCC(=O)NCC(OC(C)=O)C1=CC(=O)OC1O (stereo not drawn) [Compound 41, 4-(1-Acetoxy-2-undecanylamido)ethyl-5-hydroxy-2(5H)-furanone]
[1]
  IC50: 0.04 µM

## CCCCCCCCCCCC(=O)NCC(OC(=O)CCCCCCCCCCC)C1=CC(=O)OC1O (stereo not drawn) [Compound 42, 4-(2-Undecanylamido-1-dodecanoyloxy)ethyl-5-hydroxy-2(5H)-furanone]
[1]
  IC50: 0.03 µM

## CCCCCCCCCCCCS(=O)(=O)NCC(OC(C)=O)C1=CC(=O)OC1O (stereo not drawn) [Compound 43, 4-[1-Acetoxy-2-(dodecanesulfonylamido)ethyl]-5-hydroxy-2(5H)-furanone]
[1]
  IC50: 0.03 µM

## CC(=O)OC(CNC(=O)CCCCCCCCCCC(=O)O)C1=CC(=O)OC1O (stereo not drawn) [Compound 44]
[1]
  IC50: 0.09 µM

## CCCCCCCCCCCC(=O)OC(CNC(=O)N1CCN(S(C)(=O)=O)CC1)C1=CC(=O)OC1O (stereo not drawn) [Compound 45]
[1]
  IC50: 0.05 µM

## CCCCCCCCCCCC(=O)OC(CNC(=O)N(CC)CC)C1=CC(=O)OC1O (stereo not drawn) [Compound 46, 4-[1-Dodecanoyloxy-2-(N',N'-diethyl)carboxyamido]ethyl-5-hydroxy-2(5H)-furanone]
[1]
  IC50: 0.02 µM

## CCCCCCCCCCCCSCC1=CC(=O)OC1O (stereo not drawn) [Compound 47, 4-Dodecanethiomethyl-5-hydroxy-2(5H)-furanone]
[1]
  IC50: 0.06 µM

## CCCCCCCCCCCC(=O)OCCCC1=CC(=O)OC1O (stereo not drawn) [Compound 50]
[1]
  IC50: 0.5 µM

## CCCCCCCCOC(=O)C=CC1=CC(=O)OC1O (stereo not drawn) [Compound 51, Octyl 3-(5-hydroxy-2-on-4-furyl)propen-2-oate]
[1]
  IC50: 0.09 µM

## CCCCCCCCCCCCC(OC(C)=O)C1=CC(=O)OC1(C)O (stereo not drawn) [Compound 60, 4-(1-Acetoxytridecyl)-5-hydroxy-5-methyl-2-furanone]
[1]
  IC50: 0.06 µM
[2]
  isomerization of epimers upon standing: isomerizes upon standing

## CCCCCCCCCCCCC(OC(C)=O)C1=C(C)C(=O)OC1O (stereo not drawn) [Compound 61, 4-(1-Acetoxytridecyl)-3-methyl-5-hydroxy-2(5H)-furanone]
[1]
  IC50: > 1 µM

## CCCCCCCCCCCCC(OC(=O)Nc1ccccc1)C1=CC(=O)OC1(C)O (stereo not drawn) [Compound 62, 5-Methyl-5-hydroxy-4-(1-phenylcarbamoyloxy)tridecyl-2-furanone]
[1]
  IC50: 0.24 µM

## CCCCCCCCC(OC(C)=O)C1=CCOC1=O (stereo not drawn) [Compound 70, 3-(1-Acetoxynonyl)-2(5H)-furanone]
Calcium Channel; [5]
  IC50: 3.4 µM
Calcium Channel; [6]
  IC50: 4.9 µM

## CCCCCCCCCCCCC(O)C1=CCOC1=O (stereo not drawn) [Compound 71, 3-(1-Hydroxytridecyl)-2(5H)-furanone]
Calcium Channel; [5]
  IC50: 1.1 µM
Calcium Channel; [6]
  IC50: 2 µM

## CCCCCCCCCCCCC(OC(C)=O)C1=CCOC1=O (stereo not drawn) [Compound 72, 3-(1-Acetoxytridecyl)-2(5H)-furanone]
Calcium Channel; [5]
  IC50: 0.88 µM
Calcium Channel; [6]
  IC50: 16.9 µM

## CC1=C(CC/C(C)=C/CCC(C=O)=CC=CC2=CC(=O)OC2O)C(C)(C)CCC1 (stereo not drawn) [dehydro-seco-manoalide]
[3]
  anti-inflammatory, immunosuppressive and analgesic properties: anti-inflammatory activity

## CC1=C(CC/C(C)=C/CCC2=CCC(C3=CC(=O)OC3O)OC2O)C(C)(C)CCC1 (stereo not drawn) [manoalide, reference compound]
[4]
  inhibition of phosphoinositide-specific phospholipase C: inhibition of phosphoinositide-specific phospholipase C
Calcium Channel; [5]
  IC50: 1 µM
Calcium Channel; [6]
  IC50: 1 µM
[3]
  anti-inflammatory, immunosuppressive and analgesic properties: anti-inflammatory,immunosuppressive and analgesic properties

## CC1=C(CC/C(C)=C/CCC(C=O)=CCC(O)C2=CC(=O)OC2O)C(C)(C)CCC1 (stereo not drawn) [seco-manoalide]
[3]
  anti-inflammatory, immunosuppressive and analgesic properties: anti-inflammatory activity
